Entries after “also recorded” stand apart in the source; their conditions may differ. Read-outs that look alike come from different tables or passages of the source.
Legend:
[1] = Solid phase stability experiment (XRPD, HPLC, TGA after one week); assay type: physicochemical; settings: for Purity (%): HPLC; for Weight loss (%): TGA; for crystal transition: XRPD
Procedure: An appropriate amount of samples were weighed and stored at 25° C./60% RH and 40° C./75% RH (unsealed), respectively. Another set of samples were sealed and kept as a control at 5° C. at the same time. All samples were characterized by XRPD, HPLC and TGA one week later, and the crystal form, purity and weight loss were tested.

[2] = In vivo test of rats, pharmacokinetics after oral gavage; parameters: species or system SD rats; settings: rat, oral gavage 5 mg/kg; for Area under the curve AUC / Half-life T1/2: plasma
[3] = Hygroscopicity / DVS test; assay type: physicochemical; settings: for moisture absorbed: humidity increased to 80% RH at 25° C.
Procedure: Dynamic Vapor Sorption (DVS) curve: collected on DVS Intrinsic SMS (Surface Measurement Systems). The relative humidity at 25° C. is corrected with the deliquescent points of LiCl, Mg (NO3)2 and KCl.
The rate of weight loss increases when the humidity is reduced to 20% RH at 25° C.
The DVS test was performed on crystal form II sample at a constant temperature of 25° C.
In order to assess the stability of anhydrous crystal form I and hydrate crystal form II under different humidity conditions, DVS assay was performed on samples of anhydrous crystal form I and hydrate crystal form II at constant 25° C.
When the humidity reaches 20% RH, a turning point appears in the isothermal map of DVS, which is caused by the transition from anhydrous crystal form I to hydrate form II according to the XRPD comparison of the samples before and after the DVS assay shown in FIG. 32. The actual moisture absorbed is less than the moisture content of crystal form II sample due to the slow solid phase transition rate.

[4] = tested on: A431 cells; experiment: Cytostatic activity by MTT method, A431; assay type: cell-based
[5] = biological target: T1, EGFR WT kinase (Homo sapiens, UniProt P00533); experiment: Wild type EGFR kinase inhibition test (z-lyte); assay type: biochemical
T1 construct: purchased Invitrogen PV3872

[6] = tested on: H1975 cells; experiment: Cytostatic activity by MTT method, H1975; assay type: cell-based
[7] = Dynamic solubility experiment in water, SGF, FaSSIF, FeSSIF; assay type: physicochemical; settings: thermodynamic from solid, room temperature
[8] = Suspension competition test between crystal forms; assay type: physicochemical; settings: for stability relationship crystal form II / IV: acetone/H2O (aw 0.6), about 5 minutes
Procedure: Firstly, the suspension of maleate crystal form C-1 in acetone was prepared at two temperature respectively, and filtered after balancing for about one hour.
In order to further confirm the stability relationship between anhydrous crystal form I and hydrate crystal form II under different water activity conditions at room temperature, the mixture of crystal form I and crystal form II was suspended and stirred in acetone/H2O solvent system with different water activities (aw—0.2/0.4/0.6/0.8).
In order to study the stability relationship between different hydrate crystal form II and IV at room temperature to 50° C., a suspension competition test was set up in aqueous system at room temperature and 50° C. respectively. Firstly, the free base suspension in acetone/H2O (aw—0.6) was prepared at room temperature and 50° C. respectively. After balancing at the corresponding temperature for about 1 hour, the suspension was filtered to obtain the near saturated solution at the corresponding temperature. An equal quantity of crystal form II and IV samples (about 6 mg each) was added to 0.8 ml of saturated solution to form a suspension which was magnetically stirred (−800 rpm) at room temperature and 50° C. for about 5 minutes, and sampled for XRPD test.

[9] = room temperature, crude solubility
[10] = tested on: H1975 cells; experiment: Activities of EGFR T790M inhibitor on cells by ELISA, H1975; assay type: cell-based; settings: Homo sapiens, NCI-H1975
[11] = tested on: NIH3T3 cells; experiment: Cytotoxicity against NIH3T3 cells, MTT assay; assay type: cell-based; settings: Mus musculus, 72 h incubation
[12] = tested on: A431 cells; experiment: Activities on cells by ELISA, A431 (EGF stimulated); assay type: cell-based; settings: Homo sapiens, A-431
[13] = Storage of crystal form C-1 at 80° C. for 24 hours (XRPD, HPLC); assay type: physicochemical

T1 sequence (P00533 25-1210): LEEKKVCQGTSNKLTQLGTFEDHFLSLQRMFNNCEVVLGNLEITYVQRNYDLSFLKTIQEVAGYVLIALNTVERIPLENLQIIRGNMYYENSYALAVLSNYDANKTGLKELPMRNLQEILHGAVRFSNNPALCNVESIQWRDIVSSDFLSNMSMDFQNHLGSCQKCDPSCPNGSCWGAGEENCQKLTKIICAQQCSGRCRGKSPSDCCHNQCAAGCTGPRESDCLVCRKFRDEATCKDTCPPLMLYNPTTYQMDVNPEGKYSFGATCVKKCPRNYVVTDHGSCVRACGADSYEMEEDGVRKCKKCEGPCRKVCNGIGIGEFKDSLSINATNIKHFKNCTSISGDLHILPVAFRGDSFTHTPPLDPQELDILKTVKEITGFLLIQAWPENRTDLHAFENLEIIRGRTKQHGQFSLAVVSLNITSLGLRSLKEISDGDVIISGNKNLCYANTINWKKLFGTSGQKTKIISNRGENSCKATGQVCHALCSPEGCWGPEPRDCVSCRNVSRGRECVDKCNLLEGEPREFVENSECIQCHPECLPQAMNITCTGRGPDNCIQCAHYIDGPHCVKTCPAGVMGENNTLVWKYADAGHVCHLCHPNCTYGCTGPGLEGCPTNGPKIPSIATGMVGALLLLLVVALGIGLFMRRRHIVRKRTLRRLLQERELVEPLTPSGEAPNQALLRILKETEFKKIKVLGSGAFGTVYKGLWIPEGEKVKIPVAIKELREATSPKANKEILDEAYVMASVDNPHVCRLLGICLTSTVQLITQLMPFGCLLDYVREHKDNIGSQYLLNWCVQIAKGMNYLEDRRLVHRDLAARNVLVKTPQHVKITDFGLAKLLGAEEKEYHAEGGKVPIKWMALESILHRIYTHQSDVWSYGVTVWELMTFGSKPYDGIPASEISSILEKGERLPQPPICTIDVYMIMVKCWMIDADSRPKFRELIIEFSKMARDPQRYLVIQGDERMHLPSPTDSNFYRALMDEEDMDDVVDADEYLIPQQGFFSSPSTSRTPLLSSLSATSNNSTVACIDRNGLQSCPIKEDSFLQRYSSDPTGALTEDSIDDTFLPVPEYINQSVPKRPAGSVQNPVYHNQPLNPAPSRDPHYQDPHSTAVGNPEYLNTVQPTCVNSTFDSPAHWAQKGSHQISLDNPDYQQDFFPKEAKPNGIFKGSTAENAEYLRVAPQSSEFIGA

Molecule	Purity (%) ([1]; 5° C. (control), sealed)	Weight loss (%) ([1]; 5° C. (control), sealed)	Weight loss (%) ([1]; 25° C./60% RH, unsealed)	crystal transition ([1]; 25° C./60% RH, unsealed)	Weight loss (%) ([1]; 40° C./75% RH, unsealed)	crystal transition ([1]; 40° C./75% RH, unsealed)	Maximum plasma concentration Cmax [2] [ng/mL]	Area under the curve AUC [2] [ng·h/mL]	Half-life T1/2 [2] [h]	further results
C=CC(=O)Nc1cc(Nc2ncc(F)c(-c3cnn(C)c3)n2)c(OC)cc1N1CCC(N(C)C)CC1.O=C(O)C[C@H](O)C(=O)O [crystal form D]	99.37	1.6	1.3	no	1.2	no	84.4	1202	6.63	
C=CC(=O)Nc1cc(Nc2ncc(F)c(-c3cnn(C)c3)n2)c(OC)cc1N1CCC(N(C)C)CC1.O=P(O)(O)O [crystal form B]	99.56	4.1	4.6	no	4.5	no	93.2	1265	7.04	crystal form before and after the DVS test (XRPD) ([3]; 25° C.): does not change
C=CC(=O)Nc1cc(Nc2ncc(F)c(-c3cnn(C)c3)n2)c(OC)cc1N1CCC(N(C)C)CC1 [the free base of compound of formula X, N-(2-(4-(dimethylamino)piperidin-1-yl)-5-(5-fluoro-4-(1-methyl-1H-pyrazol-4-yl)pyrimidin-2-ylamino)-4-methoxyphenyl)acrylamide]	99.23	5.1	5.3	no	6.2	no				inhibitory activities against EGFR wild-type cells (A431 cells), in words [4]: weak inhibitory activities; inhibitory activities against EGFR wild-type enzyme, in words [5]: weak inhibitory activities; inhibitory activities against EGFR mutant cells (H1975 cells), in words [6]: strong inhibitory activities; solubility at 1 h ([7]; fasting state simulated intestinal fluid (FaSSIF), FaSSIF, after 1 hour of solid dispersion): 4200 µg/mL; solubility at 1 h ([7]; feeding state simulated intestinal fluid (FeSSIF), FeSSIF, after 1 hour of solid dispersion): ≥ 10500 µg/mL; solubility at 1 h ([7]; simulated gastric fluid (SGF), simulated gastric fluid, SGF, after 1 hour of solid dispersion): ≥ 8500 µg/mL; solubility at 1 h ([7]; fourth solvent (head is an image; water), after 1 hour): 10 µg/mL
C=CC(=O)Nc1cc(Nc2ncc(F)c(-c3cnn(C)c3)n2)c(OC)cc1N1CCC(N(C)C)CC1 [crystal form IV]										stability relationship crystal form II / IV ([8]; room temperature and 50° C.): quickly converted to hydrate crystal form II
C=CC(=O)Nc1cc(Nc2ncc(F)c(-c3cnn(C)c3)n2)c(OC)cc1N1CCC(N(C)C)CC1.Cl [crystal form A]	99.45	3.0	4.3	no	3.4	no	93.3	1379	7.44	
maleate										Solubility S ([9]; 1,4-dioxane): S < 1.0 mg/ml; Solubility S ([9]; 2-methyltetrahydrofuran): S < 0.9 mg/ml; Solubility S ([9]; N,N-dimethylacetamide): S > 20.0 mg/ml; Solubility S ([9]; N-methylpyrrolidone): S > 23.0 mg/ml; Solubility S ([9]; acetone): S < 1.1 mg/ml; Solubility S ([9]; dimethyl sulfoxide): S > 22.0 mg/ml; Solubility S ([9]; ethanol): S < 1.1 mg/ml; Solubility S ([9]; ethyl acetate): S < 0.9 mg/ml; Solubility S ([9]; isopropanol): S < 0.9 mg/ml; Solubility S ([9]; isopropyl acetate): S < 1.0 mg/ml; Solubility S ([9]; methyl isobutyl ketone): S < 0.9 mg/ml; Solubility S ([9]; methyl tert-butyl ether): S < 1.0 mg/ml; Solubility S ([9]; n-hexane): S < 1.0 mg/ml; Solubility S ([9]; tetrahydrofuran): S < 1.2 mg/ml; Solubility S ([9]; toluene): S < 1.1 mg/ml
C=CC(=O)Nc1cc(Nc2ncc(F)c(-c3cnn(C)c3)n2)c(OC)cc1N1CCC(N(C)C)CC1 [crystal form I]										humidity at turning point of DVS isotherm (transition from anhydrous crystal form I to hydrate form II) ([3]; 25° C.): 20 % RH
C=CC(=O)Nc1cc(Nc2nccc(-c3cn(C)c4ccccc34)n2)c(OC)cc1N(C)CCN(C)C [comparative compound 1]										IC50 [10]: 29 nM; IC50 [11]: 3550 nM; IC50 ([4]; Homo sapiens, A-431, 72 h incubation): […]; IC50 [12]: […]; IC50 ([6]; Homo sapiens, NCI-H1975, 72 h incubation): 13 nM
C=CC(=O)Nc1cc(Nc2ncc(F)c(-c3cnn(C)c3)n2)c(OC)cc1N1CCC(N(C)C)CC1 [crystal form II]										stability relationship crystal form II / IV ([8]; room temperature and 50° C.): more stable than hydrate crystal form IV; stability relationship crystal form I / II ([8]; acetone/H2O, aw 0.2/0.4/0.6/0.8, room temperature, three days): more stable; weight loss in DVS ([3]; 25° C., humidity above 10% RH): essentially no weight loss; also recorded: almost no weight loss; water absorbed ([3]; DVS, 25° C., at 95% RH, after dewatering below 10% RH): 6.9%
CN(C)C/C=C/C(=O)Nc1cc2c(Nc3ccc(F)c(Cl)c3)ncnc2cc1O[C@H]1CCOC1 [BIBW2992]										IC50 [11]: 2750 nM
C=CC(=O)Nc1cc(Nc2ncc(F)c(-c3cnn(C)c3)n2)c(OC)cc1N1CCC(N(C)C)CC1.O=C(O)/C=C\C(=O)O [crystal form C-1]	99.39	0.1	1.2	no	1.3	no	86.3	1233	7.92	stability relationship crystal form C-1 / C-2 ([8]; acetone, room temperature and 50° C., stirring 5 minutes): higher thermodynamic stability than crystal form C-2; crystal form before and after the DVS test (XRPD) ([3]; 25° C.): did not change; hygroscopicity ([3]; DVS, 25° C.): slightly hygroscopic; moisture absorbed ([3]; DVS): 0.3%; crystal form and HPLC purity before and after the test [13]: did not change
C=CC(=O)Nc1cc(Nc2ncc(F)c(-c3cnn(C)c3)n2)c(OC)cc1N1CCC(N(C)C)CC1.O=C(O)CCCCC(=O)O [crystal form E]	99.30	0.1	0.5	no	0.4	no	117	1660	7.46	crystal form before and after the DVS test (XRPD) ([3]; 25° C.): did not change; hygroscopicity ([3]; DVS, 25° C.): slightly hygroscopic; moisture absorbed ([3]; DVS): 0.5%
